Measured values reported in ChEMBL document CHEMBL1131309, “Isoindol-1-one analogues of 4-(2'-methoxyphenyl)-1-[2'-[N-(2"-pyridyl)-p-iodobenzamido]ethyl]pipera zine (p-MPPI) as 5-HT1A receptor ligands” (J Med Chem, 1998).

Biological target: T1, 5-hydroxytryptamine receptor 1A (Rattus norvegicus, UniProt P19327)
T1 sequence (P19327 whole entry): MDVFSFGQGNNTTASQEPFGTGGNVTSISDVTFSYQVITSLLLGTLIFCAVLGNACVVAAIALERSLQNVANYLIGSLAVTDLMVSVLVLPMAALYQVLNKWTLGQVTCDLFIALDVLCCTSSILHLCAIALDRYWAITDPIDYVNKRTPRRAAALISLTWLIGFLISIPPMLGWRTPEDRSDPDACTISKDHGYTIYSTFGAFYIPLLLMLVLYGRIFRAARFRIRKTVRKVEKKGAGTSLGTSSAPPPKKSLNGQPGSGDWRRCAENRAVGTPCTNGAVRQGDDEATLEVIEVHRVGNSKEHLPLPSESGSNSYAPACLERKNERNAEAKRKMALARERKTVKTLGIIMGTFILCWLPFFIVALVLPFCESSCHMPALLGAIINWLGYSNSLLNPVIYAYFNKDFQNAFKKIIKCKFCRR
Description: In vitro binding affinity for 5-hydroxytryptamine 1A receptor in rat hippocampal membranes by [125I]-labeled agonist displacement.

Ki [nM]	SMILES
0.5	COc1ccccc1N1CCN(CCN2C(=O)c3ccccc3C2c2ccccc2)CC1 (stereo unspecified)
0.34	COc1ccccc1N1CCN(CCN2C(=O)c3cc([N+](=O)[O-])ccc3C2(O)c2ccccc2)CC1 (stereo unspecified)
1.85	COc1ccccc1N1CCN(CCN2C(=O)c3cc(N)ccc3C2(O)c2ccccc2)CC1 (stereo unspecified)
0.045	COc1ccccc1N1CCN(CCN2C(=O)c3cc([N+](=O)[O-])ccc3C2c2ccccc2)CC1 (stereo unspecified)
0.65	COc1ccccc1N1CCN(CCN2C(=O)c3cc(I)ccc3C2(O)c2ccccc2)CC1 (stereo unspecified)
14.9	COc1ccccc1N1CCN(CCN2Cc3ccccc3C2=O)CC1
